Reference: US20250073249A1, “STEROID COMPOUND, AND PREPARATION METHOD THEREFOR AND USE THEREOF” (SHANGHAI INSTITUTE OF MATERIA MEDICA, CHINESE ACADEMY OF …, priority 2022, published 2025)
Numbering of substitutions follows the chain as printed.

Columns and labels:
[1] = target: T1, wild-type AR (Homo sapiens, UniProt P10275); experiment: Wild-type AR antagonist activity test (luciferase reporter in HEK293 cells); format: cell-based; details: for IC50: HEK293 cells, luciferase expression, DHT 1.5 nM, 24 hours; for AR antagonist activity, times higher than that of the control enzalutamide: ratio to enzalutamide IC50
T1 construct: expressed in transfected cells; host or cells: HEK293
T1 sequence (P10275 1-920): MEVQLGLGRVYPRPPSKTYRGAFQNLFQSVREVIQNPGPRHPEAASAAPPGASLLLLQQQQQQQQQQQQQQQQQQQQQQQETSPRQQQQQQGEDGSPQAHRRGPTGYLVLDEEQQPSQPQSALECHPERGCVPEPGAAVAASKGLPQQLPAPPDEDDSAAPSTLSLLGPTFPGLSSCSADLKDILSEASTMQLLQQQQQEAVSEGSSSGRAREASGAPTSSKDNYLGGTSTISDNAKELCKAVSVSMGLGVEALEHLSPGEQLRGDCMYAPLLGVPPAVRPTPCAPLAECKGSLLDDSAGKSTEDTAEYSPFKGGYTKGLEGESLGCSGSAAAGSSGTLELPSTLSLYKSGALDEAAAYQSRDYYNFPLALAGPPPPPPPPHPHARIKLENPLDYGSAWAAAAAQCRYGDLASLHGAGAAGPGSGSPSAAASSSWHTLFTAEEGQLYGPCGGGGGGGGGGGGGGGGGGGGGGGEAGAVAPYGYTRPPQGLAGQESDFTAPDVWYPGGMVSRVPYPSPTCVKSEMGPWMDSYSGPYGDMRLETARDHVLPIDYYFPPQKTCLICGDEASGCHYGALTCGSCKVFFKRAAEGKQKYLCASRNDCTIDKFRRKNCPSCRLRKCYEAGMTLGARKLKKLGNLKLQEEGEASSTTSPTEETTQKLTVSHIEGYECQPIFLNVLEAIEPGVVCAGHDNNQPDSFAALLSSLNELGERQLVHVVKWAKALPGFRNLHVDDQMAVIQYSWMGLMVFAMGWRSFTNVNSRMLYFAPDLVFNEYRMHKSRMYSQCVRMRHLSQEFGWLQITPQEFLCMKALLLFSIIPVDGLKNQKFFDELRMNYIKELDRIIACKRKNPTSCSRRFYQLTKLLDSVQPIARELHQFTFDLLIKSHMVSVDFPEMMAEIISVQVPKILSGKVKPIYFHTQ
Description: HEK293 cells were cultured in DMEM containing 10% fetal bovine serum (FBS) at 37° C. with 5% CO2. The cells were then digested with trypsin and counted. A 10 μL/well transfection solution was prepared in opti-MEM containing 5 ng androgen receptor clone, 100 ng pGL4.36 vector, and 315 nL fugene. […] The diluted cell suspension was seeded into 96-well plates at 90 μL (40,000 cells/well), and the plates were incubated for 24 hours. Then, 10 μL of drug solution (including gradient diluted compounds or DMSO) was added, and the plates were incubated for 30 minutes. […] After 24 hours of incubation, 100 μL of Steady-Glo was added to each well of the plate, the plate was shaken at room temperature for 20 minutes, and read on an Envision.

[2] = target: T2, AR(W741L) (Homo sapiens, UniProt P10275, W742L); experiment: Mutant AR antagonistic activity test, W741L (reporter gene in HEK293 cells); format: cell-based; details: for IC50: HEK293 cells, DHT 10 nM, 24 hours, read-out: W741L IC50(nM) 1st gen AR antagonist resistant mutation
T2 construct: expressed in transfected cells; host or cells: HEK293
T2 sequence (P10275 1-920 W742L): T1 sequence (P10275 1-920) with W742L
Description: HEK293 cells were cultured in DMEM supplemented with 10% FBS and 1% GlutaMax at 37° C. with 5% CO2. The day before transfection, the medium was changed to DMEM containing 10% charcoal-stripped FBS and 1% GlutaMax. […] The cell suspension was diluted with cell seeding solution, and the transfection reagent was added to achieve 500,000 cells/mL. Subsequently, 90 μL of cell suspension was seeded into each well of the assay plate. The next day, compounds were prepared: starting from 8 mM, 3-fold serial dilutions were performed in DMSO for a total of 8 points, then 500 nL was transferred to the compound plate using Echo. The compounds were then diluted with 40 μL of medium to 10× final concentration, and 10 μL was transferred to the cell plate and incubated at 37° C. for 30 minutes. Subsequently, 10 nL of DHT at a final concentration of 10 nM was transferred to each well of the assay plate using TECAN. After 24 hours of incubation, 100 μL of Steady-Glo was added to the assay plate and read on an Envision reader. Data were determined and analyzed using GraphPad Prism.

Row | Compound | IC50 [1] [nM] | AR antagonist activity, times higher than that of the control enzalutamide [1] [times] | IC50 [2] [nM] | W741L antagonistic activity, fold improvement compared to enzalutamide ([2]; ratio to enzalutamide IC50) [fold]
1 | Cc1cn(C2=CCC3C4CC=C5C[C@@H](NC(=O)c6ccncc6)CC[C@]5(C)C4CC[C@]23C)cn1 (stereo partly drawn) [Compound 14, N-((3S,10R,13S)-10,13-dimethyl-17-(4-methyl-1H-imidazol-1-yl)-2,3,4,7,8,9,10,11,12,13,14,15-dodecahydro-1H-cyclopenta[a]phenanthren-3-yl)isonicotinamide] | 247 | 1.8 | 490 | 
2 | Cc1cn(C2=CCC3C4CC=C5C[C@@H](NC(=O)c6ccc(F)cc6F)CC[C@]5(C)C4CC[C@]23C)cn1 (stereo partly drawn) [Compound 37, N-((3S,10R,13S)-17-(4-methyl-1H-imidazol-1-yl)-10,13-dimethyl-2,3,4,7,8,9,10,11,12,13,14,15-dodecahydro-1H-cyclopenta[a]phenanthren-3-yl)-2,4-difluorobenzamide] | 235 | 1.9 | 413 | 
3 | Cc1cn(C2=CCC3C4CC=C5C[C@@H](NC(=O)c6ccc(F)cc6)CC[C@]5(C)C4CC[C@]23C)cn1 (stereo partly drawn) [Compound 33, N-((3S,10R,13S)-17-(4-methyl-1H-imidazol-1-yl)-10,13-dimethyl-2,3,4,7,8,9,10,11,12,13,14,15-dodecahydro-1H-cyclopenta[a]phenanthren-3-yl)-4-fluorobenzamide] | 120 | 3.6 | 371 | 
4 | Cc1cn(C2=CCC3C4CC=C5C[C@@H](NC(=O)c6ccc(S(C)(=O)=O)cc6)CC[C@]5(C)C4CC[C@]23C)cn1 (stereo partly drawn) [Compound 35, N-((3S,10R,13S)-17-(4-methyl-1H-imidazol-1-yl)-10,13-dimethyl-2,3,4,7,8,9,10,11,12,13,14,15-dodecahydro-1H-cyclopenta[a]phenanthren-3-yl)-4-(methylsulfonyl)benzamide] | 433 |  | 259 | 4.0
